Reference: patent US8445409B2, “Use of 5-benzyloxymethyl-1,2-isoxazoline derivatives as a herbicide” (Moghu Research Center Ltd., priority 2007, dated 2013)

Columns and labels:
[1] = system: Annual bluegrass; assay: Herbicidal activity at different growth stages, fresh weight suppression; assay type: in vivo; conditions: fresh weight two weeks after treatment
Description: To a cup pot having a surface area of 100 cm^2 wherein mixed soils including blend bed soil (Boonong, Horticultural Bed Soil No. 3) and sandy loam soil were filled (mixing ratio, 1:1), seeds of large crabgrass and annual bluegrass were sown consecutively at an one week interval. The pots were moistened by sub-irrigation, and kept in a greenhouse maintained at 25˜30° C. (day) or 15˜25° C. (night). The said weeds were grown to various growth stages from pre-emergence to the four-leaf stage. […] Spray volume was adjusted to 2,000 L/ha. The method to spray of the test substance and prepare spray solutions were the same as described above. The reference herbicide was used after it was diluted with 0.2% (v/v) Tween 20 aqueous solution. The test was conducted in a randomized block design with three replicates. Two weeks after the treatment, plant parts remained above the pot soil surface were cut and the fresh weight was weighed. Results are given by a suppression ratio relative to the biomass that was obtained from the untreated group (see, Table 3).

[2] = system: Large crabgrass; assay: as above; assay type: in vivo; conditions: fresh weight two weeks after treatment
Description: To a cup pot having a surface area of 100 cm^2 wherein mixed soils including blend bed soil (Boonong, Horticultural Bed Soil No. 3) and sandy loam soil were filled (mixing ratio, 1:1), seeds of large crabgrass and annual bluegrass were sown consecutively at an one week interval. The pots were moistened by sub-irrigation, and kept in a greenhouse maintained at 25˜30° C. (day) or 15˜25° C. (night). The said weeds were grown to various growth stages from pre-emergence to the four-leaf stage. Then, they were applied with the test substance of the present invention at dosage of 2, 1, 0.5, or 0.25 kg/ha. As a reference herbicide, Dithiopyr (32% EC, manufactured by Dongbu Hannong Chemical Company), was applied at 0.96, 0.48, or 0.24 kg/ha. Spray volume was adjusted to 2,000 L/ha. The method to spray of the test substance and prepare spray solutions were the same as described above. The reference herbicide was used after it was diluted with 0.2% (v/v) Tween 20 aqueous solution. The test was conducted in a randomized block design with three replicates. Two weeks after the treatment, plant parts remained above the pot soil surface were cut and the fresh weight was weighed. Results are given by a suppression ratio relative to the biomass that was obtained from the untreated group (see, Table 3).

[3] = system: Zoysiagrass; assay: Turfgrass safety test (sod mat pots), visual phytotoxicity; assay type: in vivo, Zoysia japonica; conditions: for Phytotoxic effect, visual assessment: Zoysiagrass Week 2 / Phytotoxic effect, visual assessment: Zoysiagrass Week 4 / Phytotoxic effect, visual assessment: Zoysiagrass Week 6: 0-10 scale (10=completely killed)
Description: (§1) Commercially available sod mats of zoysiagrass and bentgrass, Kentucky bluegrass, and perennial ryegrass were purchased. After cutting each turf sod mat in a size of 10 cm×20 cm, it was transplanted to a rectangular plastic pot having a surface area of 300 cm^2 wherein mixed soils including blend of a bed soil (Boonong, Horticultural Nursery Soil No. 3) and sandy loam soil were filled (mixing ratio, 1:1). After transplanting, the grass was mowed (0.5˜1.0 cm in height) once a week, and kept for one month in a greenhouse maintained at 25˜30° C. (day) or 15˜25° C. (night), then the test substance of the present invention was applied at dosage of 4, 2, 1 and 0.5 kg/ha. As a reference, Dithiopyr (32% EC, manufactured by Dongbu Hannong Chemical Company, KOREA) was applied at the recommended rate of 0.48 kg/ha, or twice or quadruple amount thereof, i.e., 0.96 and 1.92 kg/ha, respectively. Spray was made by a track sprayer equipped with a Teejet 8002 nozzle. Spray volume was adjusted to 2,000 L/ha, which was a typical value for an Asian (Korea and Japan) golf course. The spray solution was prepared by dissolving the “test substance” in acetone and adding the same volume of 0.2% (v/v) Tween 20 aqueous solution. Two, four or six weeks after the spray of the test substance, phytotoxicity to the turfgrass were visually evaluated based on 0 to 10 scale (0: no phytotoxic effect, 10: completely killed). The test was conducted in a randomized block design with a three replicates and the results were summarized in the following Table 2 is an average value of the replicates.

[4] = system: Perennial ryegrass; assay: as above; assay type: in vivo; conditions: 0-10 scale (10=completely killed)
Description: as §1

[5] = system: Kentucky bluegrass; assay: as above; assay type: in vivo; conditions: 0-10 scale (10=completely killed)
Description: as §1

[6] = system: Bentgrass; assay: as above; assay type: in vivo; conditions: 0-10 scale (10=completely killed)
Description: as §1

SMILES: CSC(=O)c1c(C(F)F)nc(C(F)(F)F)c(C(=O)SC)c1CC(C)C [Dithiopyr, reference compound]
- Suppression ratio relative to the biomass of the untreated group: Annual bluegrass 1 leaf ([1]; .24 kg/ha): 90%
- Suppression ratio relative to the biomass of the untreated group: Annual bluegrass 2 leaf ([1]; .24 kg/ha): 87%
- Suppression ratio relative to the biomass of the untreated group: Annual bluegrass 3 leaf ([1]; .24 kg/ha): 46%
- Suppression ratio relative to the biomass of the untreated group: Annual bluegrass 4 leaf ([1]; .24 kg/ha): 4%
- Suppression ratio relative to the biomass of the untreated group: Annual bluegrass PRE ([1]; .24 kg/ha): 100%
- Suppression ratio relative to the biomass of the untreated group: Annual bluegrass 1 leaf ([1]; .48 kg/ha): 95%
- Suppression ratio relative to the biomass of the untreated group: Annual bluegrass 2 leaf ([1]; .48 kg/ha): 88%
- Suppression ratio relative to the biomass of the untreated group: Annual bluegrass 3 leaf ([1]; .48 kg/ha): 44%
- Suppression ratio relative to the biomass of the untreated group: Annual bluegrass 4 leaf ([1]; .48 kg/ha): 10%
- Suppression ratio relative to the biomass of the untreated group: Annual bluegrass PRE ([1]; .48 kg/ha): 100%
- Suppression ratio relative to the biomass of the untreated group: Annual bluegrass 1 leaf ([1]; .96 kg/ha): 97%
- Suppression ratio relative to the biomass of the untreated group: Annual bluegrass 2 leaf ([1]; .96 kg/ha): 91%
- Suppression ratio relative to the biomass of the untreated group: Annual bluegrass 3 leaf ([1]; .96 kg/ha): 61%
- Suppression ratio relative to the biomass of the untreated group: Annual bluegrass 4 leaf ([1]; .96 kg/ha): 35%
- Suppression ratio relative to the biomass of the untreated group: Annual bluegrass PRE ([1]; .96 kg/ha): 100%
- Suppression ratio relative to the biomass of the untreated group: Large crabgrass 1 leaf ([2]; .24 kg/ha): 100%
- Suppression ratio relative to the biomass of the untreated group: Large crabgrass 2 leaf ([2]; .24 kg/ha): 89%
- Suppression ratio relative to the biomass of the untreated group: Large crabgrass 3 leaf ([2]; .24 kg/ha): 86%
- Suppression ratio relative to the biomass of the untreated group: Large crabgrass 4 leaf ([2]; .24 kg/ha): 56%
- Suppression ratio relative to the biomass of the untreated group: Large crabgrass PRE ([2]; .24 kg/ha): 100%
- Suppression ratio relative to the biomass of the untreated group: Large crabgrass 1 leaf ([2]; .48 kg/ha): 100%
- Suppression ratio relative to the biomass of the untreated group: Large crabgrass 2 leaf ([2]; .48 kg/ha): 95%
- Suppression ratio relative to the biomass of the untreated group: Large crabgrass 3 leaf ([2]; .48 kg/ha): 89%
- Suppression ratio relative to the biomass of the untreated group: Large crabgrass 4 leaf ([2]; .48 kg/ha): 57%
- Suppression ratio relative to the biomass of the untreated group: Large crabgrass PRE ([2]; .48 kg/ha): 100%
- Suppression ratio relative to the biomass of the untreated group: Large crabgrass 1 leaf ([2]; .96 kg/ha): 100%
- Suppression ratio relative to the biomass of the untreated group: Large crabgrass 2 leaf ([2]; .96 kg/ha): 98%
- Suppression ratio relative to the biomass of the untreated group: Large crabgrass 3 leaf ([2]; .96 kg/ha): 89%
- Suppression ratio relative to the biomass of the untreated group: Large crabgrass 4 leaf ([2]; .96 kg/ha): 66%
- Suppression ratio relative to the biomass of the untreated group: Large crabgrass PRE ([2]; .96 kg/ha): 100%
- Phytotoxic effect, visual assessment: Zoysiagrass Week 2 ([3]; 0.48 kg/ha (recommended rate)): 1.0
- Phytotoxic effect, visual assessment: Zoysiagrass Week 4 ([3]; 0.48 kg/ha (recommended rate)): 1.0
- Phytotoxic effect, visual assessment: Zoysiagrass Week 6 ([3]; 0.48 kg/ha (recommended rate)): 0.7
- Phytotoxic effect, visual assessment: Zoysiagrass Week 2 ([3]; 0.96 kg/ha): 2.3
- Phytotoxic effect, visual assessment: Zoysiagrass Week 4 ([3]; 0.96 kg/ha): 1.5
- Phytotoxic effect, visual assessment: Zoysiagrass Week 6 ([3]; 0.96 kg/ha): 1.3
- Phytotoxic effect, visual assessment: Zoysiagrass Week 2 ([3]; 1.92 kg/ha): 3.7
- Phytotoxic effect, visual assessment: Zoysiagrass Week 4 ([3]; 1.92 kg/ha): 3.3
- Phytotoxic effect, visual assessment: Zoysiagrass Week 6 ([3]; 1.92 kg/ha): 3.0
- Phytotoxicity against zoysiagrass (in words) ([3]; in vivo): clearly evidencing the phytotoxicity
- Phytotoxic effect, visual assessment: Perennial ryegrass Week 2 ([4]; 0.48 kg/ha (recommended rate)): 1.3
- Phytotoxic effect, visual assessment: Perennial ryegrass Week 4 ([4]; 0.48 kg/ha (recommended rate)): 0.3
- Phytotoxic effect, visual assessment: Perennial ryegrass Week 6 ([4]; 0.48 kg/ha (recommended rate)): 0.3
- Phytotoxic effect, visual assessment: Perennial ryegrass Week 2 ([4]; 0.96 kg/ha): 2.0
- Phytotoxic effect, visual assessment: Perennial ryegrass Week 4 ([4]; 0.96 kg/ha): 2.0
- Phytotoxic effect, visual assessment: Perennial ryegrass Week 6 ([4]; 0.96 kg/ha): 1.3
- Phytotoxic effect, visual assessment: Perennial ryegrass Week 2 ([4]; 1.92 kg/ha): 3.3
- Phytotoxic effect, visual assessment: Perennial ryegrass Week 4 ([4]; 1.92 kg/ha): 2.7
- Phytotoxic effect, visual assessment: Perennial ryegrass Week 6 ([4]; 1.92 kg/ha): 2.3
- Phytotoxic effect, visual assessment: Kentucky bluegrass Week 2 ([5]; 0.48 kg/ha (recommended rate)): 1.5
- Phytotoxic effect, visual assessment: Kentucky bluegrass Week 4 ([5]; 0.48 kg/ha (recommended rate)): 0.5
- Phytotoxic effect, visual assessment: Kentucky bluegrass Week 6 ([5]; 0.48 kg/ha (recommended rate)): 0.7
- Phytotoxic effect, visual assessment: Kentucky bluegrass Week 2 ([5]; 0.96 kg/ha): 2.2
- Phytotoxic effect, visual assessment: Kentucky bluegrass Week 4 ([5]; 0.96 kg/ha): 2.7
- Phytotoxic effect, visual assessment: Kentucky bluegrass Week 6 ([5]; 0.96 kg/ha): 2.7
- Phytotoxic effect, visual assessment: Kentucky bluegrass Week 2 ([5]; 1.92 kg/ha): 3.7
- Phytotoxic effect, visual assessment: Kentucky bluegrass Week 4 ([5]; 1.92 kg/ha): 4.2
- Phytotoxic effect, visual assessment: Kentucky bluegrass Week 6 ([5]; 1.92 kg/ha): 4.2
- Phytotoxic effect, visual assessment: Bentgrass Week 2 ([6]; 0.48 kg/ha (recommended rate)): 1.5
- Phytotoxic effect, visual assessment: Bentgrass Week 4 ([6]; 0.48 kg/ha (recommended rate)): 0.3
- Phytotoxic effect, visual assessment: Bentgrass Week 6 ([6]; 0.48 kg/ha (recommended rate)): 0.3
- Phytotoxic effect, visual assessment: Bentgrass Week 2 ([6]; 0.96 kg/ha): 2.3
- Phytotoxic effect, visual assessment: Bentgrass Week 4 ([6]; 0.96 kg/ha): 1.7
- Phytotoxic effect, visual assessment: Bentgrass Week 6 ([6]; 0.96 kg/ha): 2.0
- Phytotoxic effect, visual assessment: Bentgrass Week 2 ([6]; 1.92 kg/ha): 3.3
- Phytotoxic effect, visual assessment: Bentgrass Week 4 ([6]; 1.92 kg/ha): 4.2
- Phytotoxic effect, visual assessment: Bentgrass Week 6 ([6]; 1.92 kg/ha): 4.2
